Laboratory results published in paper PMC10835127, “Viruses traverse the human proteome through peptide interfaces that can be biomimetically leveraged for drug discovery” (Proceedings of the National Academy of Sciences of the …, 2024).
Values after ≈ are worked out from the molar mass of the structure shown. Where two headings read alike, the source gives them in different places. No end group written: not given here.

Columns and labels:
NAF-1 = biological target: T1, NAF-1 (Homo sapiens, UniProt Q8N5K1); assay: In vitro NEET [2Fe-2S] cluster release, NAF-1; assay type: biochemical; conditions: recombinant NAF-1, 37 °C, absorbance 460 nm
T1 construct: MitoNEET ([60]) and NAF-1 ([61]) cytosolic domains and MiNT ([62]) were purified from E. coli as previously published; made in house; host or cells: E. coli
T1 sequence (Q8N5K1 61-135 limits assumed): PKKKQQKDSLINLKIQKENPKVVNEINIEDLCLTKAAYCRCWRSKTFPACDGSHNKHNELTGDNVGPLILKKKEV
Method: (§1) MitoNEET ([60]) and NAF-1 ([61]) cytosolic domains and MiNT ([62]) were purified from E. coli as previously published. Experiments were performed in 96-well plates at 37 °C with […] of Fe-S cluster in a buffer composed of 50 mM Tris-HCl pH 7 and 100 mM NaCl. dEF3122 was dissolved in dimethyl sulfoxide (DMSO) at 10 mM. CPEP31 was dissolved in PBS at 10 mM. After 20 min of incubation of the protein with the molecule, NEET cluster release was followed by measuring the absorbance at 460 and 800 nm over time using a plate reader (SpectraMax ID3). The absorbance at 460 nm was corrected for the variation of the baseline (absorbance at 800 nm) over time and normalized at 1 at the beginning of the kinetics.

influenza A H1N1 virus [1] = conditions: 48 hr post-treatment, A549
HCV replicon = assay type: cell-based; conditions: normalized mean of HCV replicon readout
MitoNEET = biological target: T2, MitoNEET (Homo sapiens, UniProt Q9NZ45); assay: In vitro NEET [2Fe-2S] cluster release, MitoNEET; assay type: biochemical; conditions: recombinant MitoNEET, 37 °C, absorbance 460 nm
T2 construct: MitoNEET ([60]) and NAF-1 ([61]) cytosolic domains and MiNT ([62]) were purified from E. coli as previously published; made in house; host or cells: E. coli
T2 sequence (Q9NZ45 32-108 limits assumed): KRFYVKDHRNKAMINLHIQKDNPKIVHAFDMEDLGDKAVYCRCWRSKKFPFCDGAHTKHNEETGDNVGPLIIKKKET
Method: as §1

MiNT = biological target: T3, MiNT (Homo sapiens, UniProt P0C7P0); assay: In vitro NEET [2Fe-2S] cluster release, MiNT; assay type: biochemical; conditions: recombinant MiNT, 37 °C, absorbance 460 nm
T3 construct: made in house; host or cells: E. coli
T3 sequence (P0C7P0 15-127): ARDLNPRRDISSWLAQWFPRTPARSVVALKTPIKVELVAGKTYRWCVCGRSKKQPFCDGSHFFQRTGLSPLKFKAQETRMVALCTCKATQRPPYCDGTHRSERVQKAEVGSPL
Method: as §1

[2] = test system: F. novicida (strain U112); assay type: cell-based; conditions: normalized area under the curve
EBV = conditions: normalized mean of EBV replication readout
HIV1 strain NL4-3 = assay type: cell-based; conditions: normalized mean of HIV1 replication readout
[3] = not given; remark: listed apart in the source
[4] = Microsomal stability, mouse liver microsomes; assay type: in vitro ADME; conditions: male, CD-1, mouse, pH 7.4; murine liver microsomes; read-out: CLint mLM
Method: (§2) Tested compounds (1 μM) were incubated with pooled human liver microsomes (Xenotech; pooled male and female) and pooled mouse liver microsomes (Xenotech; male CD-1 mice).
(§3) Microsomes (final protein concentrations of 0.25 and 0.5 mg/ml, 0.1 M phosphate buffer pH 7.4) containing tested compound (final substrate concentration 1 μM; final DMSO concentration 0.25 %) were preincubated at 37 °C prior to the addition of NADPH (final concentration 1 mM) to initiate the reaction. The final incubation volume was 200 μl. 3 species-specific control compounds were included with each species. At 5 time points (0, 5, 10, 20, and 40 min), reactions were stopped by transferring 50 μl of the incubation mixture into 0.5 μM carbamazepine in acetonitrile. Tested compound concentrations were analyzed by LC-MS/MS and the resulting data were used to determine the half-life and intrinsic clearance of the compound in each

[5] = Cryopreserved hepatocyte stability, human; assay type: in vitro ADME; conditions: cryopreserved hepatocytes, read-out: CLint hHep
Method: (§4) Cryopreserved hepatocyte stability
(§5) Tested compounds (1 μM) were incubated with human cryopreserved hepatocytes (pool of 5) (IVT Celsis) and mouse cryopreserved hepatocytes (IVT Celsis). Hepatocytes (1, 0.5 or 0.25 x10^6 cells/mL, Williams’ Medium E (WME) with 4 mM L-glutamine and 2 mM magnesium sulphate) containing tested compound (final substrate concentration 1 μM; final DMSO concentration 0.25 %) were preincubated at 37 °C. The final incubation volume was 500 μl. 3 species-specific control compounds were included with each species. At 7 time points (0, 10, 20, 40, 60, 90, and 120 min), reactions were stopped by transferring 50 μl of the incubation mixture into 0.5 μM carbamazepine in cold acetonitrile. Tested compound concentrations were analyzed by LC-MS/MS and the resulting data were used to determine the half-life and intrinsic clearance of the compound in each species. […]

[6] = Plasma protein binding by equilibrium dialysis, murine; assay type: in vitro ADME; conditions: mouse, read-out: PPB (% bound)
Method: The free and bound fractions of the tested compounds in mouse and human plasma were determined by equilibrium dialysis using a 96-well Teflon dialysis unit (HTDialysis plate complete unit, HT Dialysis, USA). The HTDialysis plate complete unit consists of a 96-well plate with wells vertically bisected by a semipermeable membrane (membranes strips 12 to 14 kDa) creating two chambers. A 125 μL aliquot of plasma containing tested compound at 10 μM was placed on one side and 125 μL of Dulbecco‘s phosphate buffered saline (D-PBS) on the other. The plate was incubated at 37 °C for 6 hr under gentle agitation. Then, samples from both plasma and buffer compartment were analyzed by a LC-MS/MS method to measure the free fraction and the bound fraction to the plasma proteins. […]

Kinetic solubility = assay type: physicochemical; conditions: PBS pH 7.4 buffer, pH 7.4, aqueous buffer, kinetic from dmso stock
Method: 10 mM DMSO Stock solutions of tested compounds were distributed into filtration plate (Multiscreen Durapore 0.45µm) containing PBS pH 7.4 buffer to a final maximum concentration of 130 μM (1.3 % DMSO/buffer). Solutions or suspensions were shaken for 30 min at room temperature. The samples were filtered under vacuum into a collection plate and diluted 50 % with ACN for UV analysis. Quantification was performed against a Reference plate containing the same tested compounds fully solubilized in ACN/PBS buffer 1:1. Reference and Sample plates were analyzed by UPLC/UV-MS using a generic UPLC method. […]

Dengue virus = conditions: in vitro; cited from earlier work
PK parameters in mice = assay type: in vivo, male Swiss (CD-1) mice; conditions: male, Swiss (CD-1), plasma, mouse
Method: PK parameters and tissue distribution in mice
The pharmacokinetic profiles of the tested compounds were evaluated in male Swiss (CD-1) mice around 5-6 weeks old (3 animals per sampling time). […]
0.2 % Tween 80 in water. Blood samples were collected (0.25 mL) from the sinus retro-orbital […]
24 hr for p.o. route. The blood samples were immediately centrifuged at 2500 rpm at +4 °C, and the plasma was stored at −80 °C. 50 μL of plasma sample was taken and 150 μL of acetonitrile was added. After protein precipitation, analysis of the molecule was performed using LC-MS/MS to determine plasma compound concentration. For liver and lung collection, 3 animals per group were involved and sampled after 2 hr and 24 hr upon 20 mg/kg p.o. administration. Animals were perfused with around 10 mL of saline solution directly into the heart to extract the maximal blood sample from the liver and the lung. Animals were then sacrificed by cervical dislocation and liver

[7] = Microsomal stability, human liver microsomes; assay type: in vitro ADME; conditions: both sexes, pH 7.4, read-out: CLint hLM
Method: as §2, §3

[8] = Cryopreserved hepatocyte stability, mouse; assay type: in vitro ADME; conditions: cryopreserved hepatocytes, murine hepatocytes, read-out: CLint mHep
Method: as §4, §5

influenza A H1N1 virus [9] = assay: microbe, parasite or virus in culture; conditions: H1N1, A549, read-out: Neuraminidase activity assay IC50

In the case of EVVLFLLNVF [CPEP31], the “interaction by [2Fe-2S] cluster release assay” value (“interaction” below) (NAF-1) is reported as “Interactions were validated”, the “Neuraminidase activity normalized to vehicle” value (influenza A H1N1 virus [1]; 200 µM peptide) is reported as 0,0494 and the “Neuraminidase activity normalized to vehicle” value (influenza A H1N1 virus [1]; 0,823 µM peptide) is reported as 0,7352. The “Neuraminidase activity normalized to vehicle” value (influenza A H1N1 virus [1]; 22,2 µM peptide) was 0,2851, the “Neuraminidase activity normalized to vehicle” value (influenza A H1N1 virus [1]; 2,4691 µM peptide) was 0,951 and the “Neuraminidase activity normalized to vehicle” value (influenza A H1N1 virus [1]; 7,4074 µM peptide) was 0,7335. For the same molecule, the “Neuraminidase activity normalized to vehicle” value (influenza A H1N1 virus [1]; 66,6667 µM peptide) was 0,114, the “HCV Norm MEAN” value (HCV replicon) was 0.4448 and the “interaction” value (MitoNEET) was “Interactions were validated”. The selectivity ratio was > 12, the “interaction” value (MiNT) was “Interactions were validated” and the “Francisella novicida Norm AUC” value [2] was 0.6912. The “EBV Norm MEAN” value (EBV) was 0.8028, the “HIV1 Norm MEAN” value (HIV1 strain NL4-3) was 8.9 and the CC50 [3] was > 100 µM.

In the case of `COc1ccc(C(=O)Nc2sc3c(c2C(=O)O)CCC(C)(C)C3)cc1OC` [dEF2788], the microsomal CLint at 1 µM [4] is reported as 14 µL/min/mg, the hepatocyte CLint at 1 µM [5] is reported as 31 µL/min/1e6 cells and the fraction unbound at 6 h, 10 µM [6] is reported as < 0.01. For the same molecule, the solubility kinetic at 30 min (Kinetic solubility) was 104 µM (≈ 40.5 µg/mL), the “activity against Dengue virus replication” value (Dengue virus) was “active in vitro against Dengue virus replication” and the half-life (PK parameters in mice; iv 0.5 mg/kg, read-out: T1/2 iv (converted)) was 48 min. For the same molecule, the Cmax (PK parameters in mice; po 5 mg/kg (dose for AUC)) was 71 ng/mL, the bioavailability (PK parameters in mice; po 5 mg/kg, iv 0.5 mg/kg) was 26% and the microsomal CLint at 1 µM [7] was < 14 µL/min/mg. The hepatocyte CLint at 1 µM [8] was 116 µL/min/1e6 cells and the IC50 (influenza A H1N1 virus [9]) was 50 nM.
